Source: article PMC10804683, “Identification of the pyridoxal 5′‐phosphate allosteric site in human pyridox(am)ine 5′‐phosphate oxidase” (Protein Science : A Publication of the Protein Society, 2024)

How the values were obtained:
[1] = molecular target: T1, human PNPO 1-31del variant (holo-enzyme) (Homo sapiens, UniProt Q9NVS9); test: PLP binding by FMN fluorescence changes, holo 1-31del; settings: read-out: PLP binding KD^FLUO
T1 construct: a main form corresponding to the entire protein; made in house; host or cells: E. coli BL21(DE3)
T1 sequence (Q9NVS9 32-261): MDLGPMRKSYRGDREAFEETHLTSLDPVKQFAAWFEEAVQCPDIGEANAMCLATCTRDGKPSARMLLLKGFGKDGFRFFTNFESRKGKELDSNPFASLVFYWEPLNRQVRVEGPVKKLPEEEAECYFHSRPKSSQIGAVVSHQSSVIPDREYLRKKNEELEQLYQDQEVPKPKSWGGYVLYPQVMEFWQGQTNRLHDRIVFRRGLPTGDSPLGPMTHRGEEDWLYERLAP
Source text: In order to further confirm the location of the PNPO allosteric site, we made several attempts to obtain the crystal structure of the protein‐PLP complex. With the E. coli homologue, any attempt to obtain such a complex with the wild type protein yielded structures in which PLP was bound at the active site, and we could obtain a complex with PLP bound at the allosteric site only when we used a multiple variant form of the enzyme in which the capability to bind ligands at the active site was impaired (Barile et al., [2021]). On the basis of this previous experience, we carried out co‐crystallization attempts with either the wild type or the R225H variant of the human protein and PLP. […] We obtained crystals with both protein forms (Table S1); however, PLP was detected only in the active site of the wild type protein, thus a clear indication about the location of the allosteric site was missing. […] The most interesting features of the 1‐31del form are a lower KD for PLP binding (threefold lower with respect to wild type PNPO), which indicates a higher affinity for the allosteric site, and the related more marked allosteric inhibition, which is evident from the comparison of the reaction kinetics measured in TRIS and HEPES buffers (Figure 7). […]

human PNPO wild type = molecular target: T2, human PNPO wild type (Homo sapiens, UniProt Q9NVS9); set-up: a main form corresponding to the entire protein; made in house; host or cells: E. coli BL21(DE3); method as in Barile et al. ([2020]); settings: DSF, ref Barile et al. ([2020]), read-out: PLP binding KD^DSF; cited from earlier work
T2 sequence (Q9NVS9 1-261): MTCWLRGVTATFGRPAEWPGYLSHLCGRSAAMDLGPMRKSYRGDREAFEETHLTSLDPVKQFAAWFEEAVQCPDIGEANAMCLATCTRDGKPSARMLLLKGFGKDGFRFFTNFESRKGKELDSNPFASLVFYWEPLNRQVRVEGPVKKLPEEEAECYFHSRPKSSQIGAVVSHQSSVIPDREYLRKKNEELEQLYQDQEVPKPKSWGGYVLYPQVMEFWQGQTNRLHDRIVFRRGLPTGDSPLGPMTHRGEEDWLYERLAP

## Cc1ncc(COP(=O)(O)O)c(C=O)c1O [PLP, pyridoxal 5′‐phosphate]
[1]
  Kd: 310 ± 30 nM
Human PNPO wild type
  Kd: 3200 ± 200 nM
